This assay concerns HIV-IIIb (MT-4 cells). In words: Test A: Antiviral Assays in MT4 Cells. Format: cell-based. The settings on record: MT-4 cells infected with HIV-IIIb (0.004 m.o.i.), 5 days incubation, CellTiter-Glo readout, read-out: EC50. As to the method:
Test A: Antiviral Assays in MT4 Cells
For the antiviral assay utilizing MT-4 cells, 0.4 μL of […] test concentration of 3-fold serially diluted compound in DMSO was added to 40 μL of cell growth medium (RPMI 1640, 10% FBS, 1% penicilline/Streptomycine, 1% L-Glutamine, 1% HEPES) in each well of 384-well assay plates (10 concentrations) in quadruplicate.
1 mL aliquots of 2×10e6 MT-4 cells are pre-infected for 1 and 3 hrs respectively, @37° C. with 25 uL (MT4) or of either cell growth medium (mock-infected) or a fresh 1:250 dilution of an HIV-IIIb concentrated ABI stock (0.004 m.o.i. for MT4 cells). Infected and uninfected cells are diluted in cell growth medium and 35 uL of 2000 (for MT4) cells is added to each well of the assay plates.
Assay plates were then incubated in a 37° C. incubator. After 5 days of incubation, 25 μl of 2× concentrated CellTiter-Glo™ Reagent (catalog # G7573, Promega Biosciences, Inc., Madison, Wis.) was added to each well of the assay plate. Cell lysis was carried out by incubating at room temperature for 2-3 min and then chemiluminescence was read using the Envision reader (PerkinElmer). […]
(In general: In ATP-based viability assays light output follows the ATP content of the culture.)

Where [1] appears, read: Human immunodeficiency virus 1, IIIB, MT4, 120 h.

pEC50: −log10 of the molar value. Read-outs that look alike come from different tables or passages of the source.

For the compound `Cc1cc2nc(N(C)CCN(C)C)sc2c(-c2ccc3c4c(ccnc24)CCO3)c1[C@H](OC(C)(C)C)C(=O)O` (atropisomer, axis not shown) [Compound 62, (S)-2-tert-butoxy-2-((R)-7-(2,3-dihydropyrano[4,3,2-de]quinolin-7-yl)-2-((2-(dimethylamino)ethyl)(methyl)amino)-5-methylbenzo[d]thiazol-6-yl)acetic acid], the pEC50 was 5.31.
Still for that read-out and setting: the figure for `Cc1cc2nc(N(C)C(C)C)sc2c(-c2ccc3c4c(ccnc24)CCO3)c1[C@H](OC(C)(C)C)C(=O)O` (atropisomer, axis not shown) [Compound 46, (S)-2-tert-butoxy-2-((S)-7-(2,3-dihydropyrano[4,3,2-de]quinolin-7-yl)-2-(isopropyl(methyl)amino)-5-methylbenzo[d]thiazol-6-yl)acetic acid] is 7.77; for `Cc1cc2nc(N3CCC3)sc2c(-c2ccc3c4c(ccnc24)CCO3)c1[C@H](OC(C)(C)C)C(=O)O` [Compound 36, (S)-2-((R)-2-(azetidin-1-yl)-7-(2,3-dihydropyrano[4,3,2-de]quinolin-7-yl)-5-methylbenzo[d]thiazol-6-yl)-2-tert-butoxyacetic acid] it is 5.21; for `Cc1cc2nc(N(C)CC3OCCO3)sc2c(-c2ccc3c4c(ccnc24)CCO3)c1[C@H](OC(C)(C)C)C(=O)O` (atropisomer, axis not shown) [Compound 60, (S)-2-((R)-2-(((1,3-dioxolan-2-yl)methyl)(methyl)amino)-7-(2,3-dihydropyrano[4,3,2-de]quinolin-7-yl)-5-methylbenzo[d]thiazol-6-yl)-2-tert-butoxyacetic acid] it is 4.46.
In the case of `Cc1cc2nc(N(C)C)sc2c(-c2ccc3c4c(ccnc24)CCO3)c1[C@H](OC(C)(C)C)C(=O)O` [Compound 42, (S)-2-tert-butoxy-2-((S)-7-(2,3-dihydropyrano[4,3,2-de]quinolin-7-yl)-2-(dimethylamino)-5-methylbenzo[d]thiazol-6-yl)acetic acid], the pEC50 under setting [1] was 7.99.
Regarding `Cc1cc2nc(CC(C)C)sc2c(-c2ccc3c4c(ccnc24)CCO3)c1[C@H](OC(C)(C)C)C(=O)O` (atropisomer, axis not shown) [Compound 83, (S)-2-tert-butoxy-2-((S)-7-(2,3-dihydropyrano[4,3,2-de]quinolin-7-yl)-2-isobutyl-5-methylbenzo[d]thiazol-6-yl)acetic acid], the negative logarithm of the EC50 (pEC50) is 7.03.
Same read-out and setting: under `Cc1cc2nc(N(C)CC(C)C)sc2c(-c2ccc3c4c(ccnc24)CCO3)c1[C@H](OC(C)(C)C)C(=O)O` (atropisomer, axis not shown) [Compound 48, (S)-2-tert-butoxy-2-((S)-7-(2,3-dihydropyrano[4,3,2-de]quinolin-7-yl)-2-(isobutyl(methyl)amino)-5-methylbenzo[d]thiazol-6-yl)acetic acid] stands 7.17.
For `CCc1nc2cc(C)c([C@H](OC(C)(C)C)C(=O)O)c(-c3ccc(Cl)cc3)c2s1` [Compound 9], the pEC50 under setting [1] was 6.93.
Turning to `COc1ccc(CNC(=O)c2nc3cc(C)c([C@H](OC(C)(C)C)C(=O)O)c(-c4ccc5c6c(ccnc46)CCO5)c3s2)cc1` (atropisomer, axis not shown) [Compound 99, (S)-2-tert-butoxy-2-((S)-7-(2,3-dihydropyrano[4,3,2-de]quinolin-7-yl)-2-(4-methoxybenzylcarbamoyl)-5-methylbenzo[d]thiazol-6-yl)acetic acid], the pEC50 under setting [1] is 6.25.
Take `Cc1cc2nc(CC(C)C)sc2c(-c2ccccc2)c1[C@H](OC(C)(C)C)C(=O)O` [Compound 8K, (S)-2-tert-butoxy-2-(2-isobutyl-5-methyl-7-phenylbenzo[d]thiazol-6-yl)acetic acid]: the pEC50 under setting [1] was 6.19.
As to `Cc1cc2nc(C3CCCC3)sc2c(-c2ccc3c4c(ccnc24)CCO3)c1[C@H](OC(C)(C)C)C(=O)O` (atropisomer, axis not shown) [Compound 81, (S)-2-tert-butoxy-2-((R)-2-cyclopentyl-7-(2,3-dihydropyrano[4,3,2-de]quinolin-7-yl)-5-methylbenzo[d]thiazol-6-yl)acetic acid], the pEC50 was 4.56.

One may read the pEC50 as the EC50 on a negative log10 scale, so that one unit is a factor of ten.
